Experimental data: patent US20070149485A1, “SELECTED DOSAGE FOR THE TREATMENT OF CARDIOVASCULAR AND RELATED PATHOLOGIES” (Medicure International, Inc., priority 2005, published 2007)

Experiments:
[1] = tested on: high-risk patients undergoing CABG surgery with cardiopulmonary bypass; assay: Oral P5P in high-risk patients undergoing CABG surgery (randomized, double-blind, placebo-controlled): myocardial infarction and combined incidents to POD 30; format: in vivo, human; conditions: for Frequencies of myocardial infarction, cerebral infarction, or death, at POD 30: Myocardial infarction, cerebral infarction or death / Frequencies of myocardial infarction, cerebral infarction, or death, at POD 30: No myocardial infarction, cerebral infarction or death / Frequencies of myocardial infarction at POD 30: Myocardial Infarction / Frequencies of myocardial infarction at POD 30: No myocardial infarction: number of patients (% of group); for reducing post-CABG morbidity and mortality: CK-MB 100 ng/ml (post-hoc) as indicator; for reducing instances of myocardial infarction: vs placebo
Source text: A randomized, double-blind placebo-controlled, dose-ranging, parallel-arrn multi-center study was undertaken, on high-risk patients undergoing CABG surgery with cardiopulmonary bypass.
Patients were identified as “high risk” if they had two or more of the following risk factors: • Age greater than 65 years; • Current smoker;
Approximately 900 high risk pre-CABG patients in 42 different treatment centers in North America were screened and randomized to three groups of approximately 300 patients each, prior to their bypass surgery, as follows. Patients were either placed in a control group (placebo), treated orally with 250 mg/day of P5P (250 mg/day), or treated orally with 750 mg/day of P5P (750 mg/day).
The first dose of study medication was administered at 3-10 hours prior to CABG surgery. In the event of surgery delay or rescheduling, a second pre-operative dose of P5P was administered so that all patients received study medication 3-10 hours before surgery. Treatment continued for 30 days after surgery (post operative day (POD) 30). Patients received follow-up evaluations up to and including postoperative day (POD) 4, on POD 30 and on POD 90.
Patients were measured for combined incidence of cardiovascular death, nonfatal myocardial infarction (MI), and nonfatal cerebral infarction up to and including post-operative day 30 (POD 30). Patients were also measured for nonfatal myocardial infarction alone. All deaths without an identifiable non-cardiovascular cause were considered of cardiovascular origin.
Cerebral infarction (stroke) was defined clinically as any new sudden onset focal neurological deficit lasting at least 24 hours as assessed by a neurologist and after neuroimaging (computed tomography [CT] brain scan or magnetic resonance imaging [MRI]) had excluded an intracerebral hemorrhage. All patients suspected of having a stroke or transient ischemic attack (TIA) received a neurological examination (conducted by a neurologist or internist with expertise in cerebral vascular disease) within 24 hours of onset of symptoms. All patients suspected of having a stroke were submitted to cerebral imaging.
When determining whether a patient had myocardial infarction, the following definitions were used: • A peak creatine kinase—myocardial band (CK-MB) above a certain threshold. Since different experts and different prior art clinical trials used different cut-offs for this threshold, three different thresholds were used to determine whether a patient had myocardial infarction—a post-hoc cut off threshold of 100 ng/ml (a peak CK-MB of 100 ng/ml or greater on days up to and including POD 4), a post-hoc cut off threshold of 70 ng/ml, and a predefined cut off threshold of 50 ng/ml was used; • A new q-wave evidence of myocardial infarction along with CK-MB of 35 ng/ml or above on days up to and including POD 4; • A peak CK-MB of 5× ULN (25 ng/ml) or above occurring after POD 4; • A new q-wave evidence of myocardial infarction that was not present at POD 4; or • A q-wave or non-q-wave myocardial infarction as identified by the investigator and confirmed by the Clinical Endpoint Committee. A. Myocardial Infarction Rates CK-MB Cut-off of 100 ng/ml

[2] = tested on: adenosine triphosphate (ATP) induced calcium ion influx into cells; conditions: a recent evaluation; suggested antagonism of P2 purinoceptors; cited from earlier work
[3] = tested on: animal model of ischemic brain injury; conditions: animal model of ischemic brain injury (Wang, et al, J. Neurosurg. 2005); cited from earlier work
[4] = oral 250 mg/day, CK-MB cut-off 50 ng/ml
[5] = oral 250 mg/day, CK-MB cut-off 50 ng/ml (predefined)
[6] = oral 250 mg/day, CK-MB cut-off 70 ng/ml
[7] = oral 250 mg/day, CK-MB cut-off 70 ng/ml (post-hoc)
[8] = oral 250 mg/day, CK-MB cut-off 100 ng/ml
[9] = oral 250 mg/day, CK-MB cut-off 100 ng/ml (post-hoc)
[10] = oral 750 mg/day, CK-MB cut-off 50 ng/ml
[11] = oral 750 mg/day, CK-MB cut-off 50 ng/ml (predefined)
[12] = oral 750 mg/day, CK-MB cut-off 70 ng/ml
[13] = oral 750 mg/day, CK-MB cut-off 70 ng/ml (post-hoc)
[14] = oral 750 mg/day, CK-MB cut-off 100 ng/ml
[15] = oral 750 mg/day, CK-MB cut-off 100 ng/ml (post-hoc)

Cc1ncc(COP(=O)(O)O)c(C=O)c1O [P5P, 3-hydroxy-2-methyl-5-[(phosphonooxy)methyl]-4-pyridine-carboxaldehyde]
Frequencies of myocardial infarction, cerebral infarction, or death, at POD 30: Myocardial infarction, cerebral infarction or death [1, 4]: 65 (21.6%)
Frequencies of myocardial infarction, cerebral infarction, or death, at POD 30: No myocardial infarction, cerebral infarction or death [1, 4]: 236 (78.4%)
Frequencies of myocardial infarction at POD 30: Myocardial Infarction [1, 5]: 59 (19.6%)
Frequencies of myocardial infarction at POD 30: No myocardial infarction [1, 5]: 242 (80.4%)
Frequencies of myocardial infarction, cerebral infarction, or death, at POD 30: Myocardial infarction, cerebral infarction or death [1, 6]: 41 (13.6%)
Frequencies of myocardial infarction, cerebral infarction, or death, at POD 30: No myocardial infarction, cerebral infarction or death [1, 6]: 260 (86.4%)
Frequencies of myocardial infarction at POD 30: Myocardial Infarction [1, 7]: 34 (11.3%)
Frequencies of myocardial infarction at POD 30: No myocardial infarction [1, 7]: 267 (88.7%)
Frequencies of myocardial infarction, cerebral infarction, or death, at POD 30: Myocardial infarction, cerebral infarction or death [1, 8]: 31 (10.3%)
Frequencies of myocardial infarction, cerebral infarction, or death, at POD 30: No myocardial infarction, cerebral infarction or death [1, 8]: 270 (89.7%)
Frequencies of myocardial infarction at POD 30: Myocardial Infarction [1, 9]: 23 (7.6%)
Frequencies of myocardial infarction at POD 30: No myocardial infarction [1, 9]: 278 (92.4%)
Frequencies of myocardial infarction, cerebral infarction, or death, at POD 30: Myocardial infarction, cerebral infarction or death [1, 10]: 77 (25.6%)
Frequencies of myocardial infarction, cerebral infarction, or death, at POD 30: No myocardial infarction, cerebral infarction or death [1, 10]: 224 (74.4%)
Frequencies of myocardial infarction at POD 30: Myocardial Infarction [1, 11]: 71 (23.6%)
Frequencies of myocardial infarction at POD 30: No myocardial infarction [1, 11]: 230 (76.4%)
Frequencies of myocardial infarction, cerebral infarction, or death, at POD 30: Myocardial infarction, cerebral infarction or death [1, 12]: 47 (15.6%)
Frequencies of myocardial infarction, cerebral infarction, or death, at POD 30: No myocardial infarction, cerebral infarction or death [1, 12]: 254 (84.4%)
Frequencies of myocardial infarction at POD 30: Myocardial Infarction [1, 13]: 38 (12.6%)
Frequencies of myocardial infarction at POD 30: No myocardial infarction [1, 13]: 263 (87.4%)
Frequencies of myocardial infarction, cerebral infarction, or death, at POD 30: Myocardial infarction, cerebral infarction or death [1, 14]: 34 (11.3%)
Frequencies of myocardial infarction, cerebral infarction, or death, at POD 30: No myocardial infarction, cerebral infarction or death [1, 14]: 267 (88.7%)
Frequencies of myocardial infarction at POD 30: Myocardial Infarction [1, 15]: 23 (7.6%)
Frequencies of myocardial infarction at POD 30: No myocardial infarction [1, 15]: 278 (92.4%)
reducing post-CABG morbidity and mortality ([1]; oral 250 mg/day): effective
reducing total incidents (myocardial infarction, cerebral infarction, or death) [1, 4]: highly effective
reducing instances of myocardial infarction [1, 4]: highly effective
reducing total incidents (myocardial infarction, cerebral infarction, or death) ([1]; oral 250 mg/day, CK-MB cut-off 70 ng/ml, better than 750 mg/day): highly effective
reducing instances of myocardial infarction [1, 6]: highly effective
reducing total incidents (myocardial infarction, cerebral infarction, or death) ([1]; oral 250 mg/day, CK-MB cut-off 100 ng/ml, better than 750 mg/day): highly effective
reducing instances of myocardial infarction [1, 8]: highly effective
reducing post-CABG morbidity and mortality ([1]; oral 750 mg/day): effective
reducing total incidents (myocardial infarction, cerebral infarction, or death) [1, 10]: did not reduce
reducing instances of myocardial infarction [1, 10]: not effective
reducing total incidents (myocardial infarction, cerebral infarction, or death) [1, 12]: highly effective
reducing instances of myocardial infarction ([1]; oral 750 mg/day, CK-MB cut-off 70 ng/ml, not as effective as 250 mg/day): effective
reducing total incidents (myocardial infarction, cerebral infarction, or death) [1, 14]: highly effective
reducing instances of myocardial infarction [1, 14]: highly effective
effectiveness at reducing post-CABG morbidity and mortality, 250 mg/day compared with 750 mg/day ([1]; oral, CK-MB level greater than 50 ng/ml (pre-defined) or 70 ng/ml (post-hoc) as indicator): higher effectiveness
adenosine triphosphate (ATP) induced calcium ion influx into cells [2]: inhibits
neuroprotective effects [3]: neuroprotective effects
